Measurements published in patent US8673843B2, “NMDA receptors modulators and uses thereof” (Northwestern University, priority 2010, dated 2014).
Residues, ends and D or L forms follow the SMILES beside them.

Target: NMDA receptor (Rattus norvegicus, UniProt P35439)
Experiment: [3H] MK-801 binding assay
Settings: 50 μM glutamate; for Potency: rat forebrain crude synaptic membranes, [3H]MK-801 5 nM
Protocol: Male 2-3 month old rats were decapitated without anesthesia by guillotine, and the brains were rapidly removed (˜90 sec) and whole cortex and hippocampus dissected on an ice cold platform, frozen on dry ice, and stored at −80° C. Samples were homogenized in 20 volumes of ice cold 5 mM Tris-HCl pH 7.4 by Brinkman Polytron and pelleted 48,000×g for 20 min at 4° C., and washed an additional 3 times as described above. Membranes were then resuspended in 5 mM EDTA and 15 mM Tris-HCl pH 7.4 and incubated for 1 hr at 37° C., membranes pelleted at 48,000×g for 20 min at 4° C., snap frozen in liquid nitrogen, and stored at −80° C. On the day of the experiment, membranes were thawed at room temperature and washed an additional 7 times in ice cold 5 mM Tris-HCl (pH 7.4) as described above. After the last wash, membranes were resuspended in assay buffer (5 mM Tris-acetate pH 7.4), and protein content was determined by the BCA assay.
[^3H] […] Then the tubes were washed three times with assay buffer (5 mM Tris-acetate PH 7.4), and the filters were analyzed by liquid scintillation to calculate the disintegrations per minute (DPM). Zero levels were determined in the absence of any glycine ligand and in the presence of 30 μM 5,7-Dichlorokynurenic acid (5,7-DCKA). Maximal stimulation was measured in the presence of 1 mM glycine. 50 μM glutamate was present in all samples.
For each data point (i.e., a single concentration of the test compound), the % maximal [^3H]
The efficacy for each compound, expressed as the % increase in [^3H]

Row | SMILES | Potency [pM] | Efficacy (% Increase in [3H] MK-801 Binding) (best-fit top value, relative to 1 mM glycine maximal stimulation) [%]
1 | C[C@@H](O)[C@H](NC(=O)[C@@H]1CCCN1C(=O)[C@@H]1CCCN1C(=O)[C@@H](N)CO)C(N)=O [Compound A, (S)—N-((2S,3R)-1-amino-3-hydroxy-1-oxobutan-2-yl)-1-((S)-1-((S)-2-amino-3-hydroxypropanoyl)pyrrolidine-2-carbonyl)pyrrolidine-2-carboxamide] (H-SPPT-NH2) | 5 | 
2 | C[C@@H](O)[C@H](N)C(=O)N1CCC[C@H]1C(=O)N1CCC[C@H]1C(=O)N[C@@H](CO)C(N)=O [Compound B, (S)—N—((S)-1-amino-3-hydroxy-1-oxopropan-2-yl)-1-((S)-1-((2S,3R)-2-amino-3-hydroxybutanoyl)pyrrolidine-2-carbonyl)pyrrolidine-2-carboxamide] (H-TPPS-NH2) | 6 | 24
3 | NC(=O)[C@H](CO)NC(=O)[C@@H]1CCCN1C(=O)[C@@H]1CCCN1C(=O)[C@@H](N)CO [Compound C, (S)—N—((S)-1-amino-3-hydroxy-1-oxopropan-2-yl)-1-((S)-1-((S)-2-amino-3-hydroxy-propanoyl)-pyrrolidine-2-carbonyl)-pyrrolidine-2-carboxamide] (H-SPPS-NH2) | 16 | 
4 | C[C@@H](O)[C@H](N)C(=O)N1CCC[C@H]1C(=O)N1CCCC1(Cc1ccccc1)C(=O)N[C@H](C(N)=O)[C@@H](C)O (stereo partly drawn) [E, N-((2S,3R)-1-amino-3-hydroxy-1-oxobutan-2-yl)-1-((S)-1-((2S,3R)-2-amino-3-hydroxybutanoyl)-pyrrolidine-2-carbonyl)-2-benzylpyrrolidine-2-carboxamide] | 0.2 | 
